Activity data for five compounds are collected here from ChEMBL document CHEMBL4406844, “Single-molecule chemiluminescent photosensitizer for a self-activating and tumor-selective photodynamic therapy of cancer” (Eur J Med Chem, 2019).

Calls of active or inactive are those of the source. The calls are words filed in the database; no cut-off is given here. Some results are limits rather than exact numbers.

Series [1] deals with PC-3. Description: Cytotoxicity against human PC3 cells assessed as reduction in cell viability at 0.1 to 100 uM incubated for 24 hrs by MTT assay. It counts as functional, cell-based.
A short description of series [2]: Induction of singlet production in acetate buffer using chemiluminescent substrate by spectrofluorimetry. It counts as functional.
Series [3] in a line: Induction of singlet oxygen production in acetate buffer assessed as ABDA florescence quenching by spectrofluorimetry. It counts as functional.
Series [4] can be described thus: Induction of singlet production in methanol in presence of potassium superoxide using chemiluminescent substrate by spectrofluorimetry. It counts as functional.
A short description of series [5]: Induction of singlet production in methanol in presence of potassium superoxide using chemiluminescent substrate incubated for 30 mins in N2-bubbling by spectrofluorimetry relative to control. The format is functional.
Series [6] can be described thus: Induction of singlet production in methanol in presence of potassium superoxide using chemiluminescent substrate incubated for 30 mins in liquid nitrogen temperature by spectrofluorimetry. It counts as functional.
A short description of series [7]: Induction of singlet oxygen production in methanol assessed as ABDA florescence quenching in presence of potassium superoxide by spectrofluorimetry. It counts as functional.
In series [8] the test system is PC-3. Description: Cytotoxicity against human PC3 cells assessed as reduction in cell viability at >75 uM incubated for 24 hrs by MTT assay relative to control. It counts as functional. (In general: Formazan colour is commonly taken as a measure of viable cells.)
Series [9] concerns MCF7. As to the kind of experiment: Cytotoxicity against human MCF7 cells assessed as reduction in cell viability at 0.1 uM incubated for 24 hrs by MTT assay. The format is functional, cell-based.
In another series the test system is MCF-10A. As to the kind of experiment: Cytotoxicity against human MCF10A cells assessed as reduction in cell viability at 0.1 to 100 uM incubated for 24 hrs by MTT assay. The format is cell-based.
Series [10] in a line: Induction of singlet oxygen production in methanol assessed as ABDA florescence quenching by spectrofluorimetry. The format is functional.
The test system of series [11] is MCF7. Description: Cytotoxicity against human MCF7 cells assessed as reduction in cell viability at 0.1 to 100 uM incubated for 24 hrs by MTT assay. The format is functional, cell-based.

For `CN(C)C(=N)NC(=N)N`, the outcome with PC-3 [1] was Active.

As to `CC(=O)Nc1cnc(Br)cn1`, the outcome in series [2] and in series [3] was Active.

Take `Cc1nc2c[nH]c(-c3ccc(Br)cc3)cn-2c1=O`: the result (in series [4]; in series [5]; in series [6]; in series [7]; in the series with MCF7 [9]) was Active. Also, the Activity is on record as greater than 50% with PC-3 [8] and “Non-Toxic” in the series on MCF-10A.

For `O=c1c(Cc2ccc(O)cc2)nc2c(Cc3ccccc3)[nH]c(-c3ccc(O)cc3)cn1-2`, the result (in [2]; with PC-3 [1]) was Active. In addition, the result (in [5]; in series [10]; in the series on MCF7 [11]) was inactive.

Take `CC/C(=C(\c1ccccc1)c1ccc(OCCN(C)C)cc1)c1ccccc1`: the outcome in the series with MCF7 [11] was Active.
